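Each compound was tested at five concentrations against cells in 96-well plates for 48 hours. GI50: concentration for 50% inhibition of growth.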 Calls of active or inactive are those of the source. No stated cut-off is given here; in the data, active = GI50 up to about 1.1 µM and inactive = higher.
What was measured:
Test in all cases: inhibition of tumour cell growth, NCI panel, 48 h
A549 = test system: A549
HCT-116 = test system: HCT-116
HOP-62 = test system: HOP-62
HOP-92 = test system: HOP-92
HT-29 = test system: HT-29
K562 = test system: K562
M14 = test system: M14
MOLT-4 = test system: MOLT-4
NCI-H460 = test system: NCI-H460
NCI-H522 = test system: NCI-H522
SF-295 = test system: SF-295
SK-MEL-28 = test system: SK-MEL-28
SK-MEL-2 = test system: SK-MEL-2
SK-OV-3 = test system: SK-OV-3
SW-620 = test system: SW-620
UACC-257 = test system: UACC-257
COLO 205 = test system: COLO 205
OVCAR-3 = test system: OVCAR-3
OVCAR-5 = test system: OVCAR-5

Row | Structure (SMILES) | GI50 (A549) | GI50 (HCT-116) | GI50 (HOP-62) | GI50 (HOP-92) | GI50 (HT-29) | GI50 (K562) | GI50 (M14) | GI50 (MOLT-4) | GI50 (NCI-H460) | GI50 (NCI-H522) | GI50 (SF-295) | GI50 (SK-MEL-28) | GI50 (SK-MEL-2) | GI50 (SK-OV-3) | GI50 (SW-620) | GI50 (UACC-257) | GI50 (COLO 205) | GI50 (OVCAR-3) | GI50 (OVCAR-5)
1 | N=C(N)Nc1nc2cc(N)ccc2o1 | > 100 µM (inactive) | > 100 µM (inactive) | > 100 µM (inactive) | > 100 µM (inactive) | > 100 µM (inactive) | > 100 µM (inactive) | > 100 µM (inactive) | > 100 µM (inactive) | > 100 µM (inactive) | > 100 µM (inactive) | > 100 µM (inactive) | > 100 µM (inactive) | > 100 µM (inactive) | > 100 µM (inactive) | > 100 µM (inactive) | > 100 µM (inactive) | – | – | –
2 | CCc1ccccc1NC(=O)C(=O)C(C#N)c1ccccc1Cl (stereo not given) | > 100 µM (inactive) | > 100 µM (inactive) | > 100 µM (inactive) | > 100 µM (inactive) | > 100 µM (inactive) | – | > 100 µM (inactive) | > 100 µM (inactive) | 16.9 µM (inactive) | – | > 100 µM (inactive) | > 100 µM (inactive) | > 100 µM (inactive) | – | > 100 µM (inactive) | > 100 µM (inactive) | > 100 µM (inactive) | > 100 µM (inactive) | > 100 µM (inactive)
3 | O=C1C(Cl)C(c2ccc(Cl)cc2)N1n1cnc2ccccc2c1=O (stereo not given) | > 100 µM (inactive) | > 100 µM (inactive) | > 100 µM (inactive) | – | > 100 µM (inactive) | 35.6 µM (inactive) | > 100 µM (inactive) | 88.9 µM (inactive) | > 100 µM (inactive) | 55.2 µM (inactive) | 82.8 µM (inactive) | > 100 µM (inactive) | > 100 µM (inactive) | 33.8 µM (inactive) | 77.8 µM (inactive) | > 100 µM (inactive) | > 100 µM (inactive) | > 100 µM (inactive) | > 100 µM (inactive)
4 | O=S1(=O)OCCOS(=O)(=O)C1(I)I | 26.2 µM (inactive) | 16.3 µM (inactive) | 19.6 µM (inactive) | 13.7 µM (inactive) | 24.8 µM (inactive) | 29.5 µM (inactive) | 20 µM (inactive) | 15.9 µM (inactive) | – | 18.7 µM (inactive) | 26.3 µM (inactive) | 19.9 µM (inactive) | 22 µM (inactive) | 21.9 µM (inactive) | 16.8 µM (inactive) | 22.6 µM (inactive) | 16.9 µM (inactive) | 24 µM (inactive) | –
5 | COc1cccc2c1[C@]1(O)C(O)CCCC21 (stereo not given in full) | > 100 µM (inactive) | > 100 µM (inactive) | > 100 µM (inactive) | – | > 100 µM (inactive) | > 100 µM (inactive) | > 100 µM (inactive) | > 100 µM (inactive) | > 100 µM (inactive) | > 100 µM (inactive) | > 100 µM (inactive) | > 100 µM (inactive) | > 100 µM (inactive) | > 100 µM (inactive) | > 100 µM (inactive) | > 100 µM (inactive) | > 100 µM (inactive) | > 100 µM (inactive) | > 100 µM (inactive)
6 | CC(C)(C)S(=O)OC12CC3CC(CC(C3)C1)C2 (stereo not given) | > 100 µM (inactive) | > 100 µM (inactive) | > 100 µM (inactive) | – | > 100 µM (inactive) | > 10 µM (inactive) | > 100 µM (inactive) | > 100 µM (inactive) | > 100 µM (inactive) | > 100 µM (inactive) | > 100 µM (inactive) | > 100 µM (inactive) | > 100 µM (inactive) | – | > 100 µM (inactive) | – | > 100 µM (inactive) | > 100 µM (inactive) | > 100 µM (inactive)
7 | S=C1NC(c2ccccc2)=NC(Cc2ccccc2)(c2ccccc2)N1c1ccccc1 (stereo not given) | 58.9 µM (inactive) | > 100 µM (inactive) | 40.3 µM (inactive) | > 100 µM (inactive) | > 100 µM (inactive) | > 100 µM (inactive) | > 100 µM (inactive) | > 100 µM (inactive) | > 100 µM (inactive) | – | 37.9 µM (inactive) | > 100 µM (inactive) | – | – | > 100 µM (inactive) | > 100 µM (inactive) | > 100 µM (inactive) | > 100 µM (inactive) | > 100 µM (inactive)
8 | COc1c(CC(=O)c2ccccc2)c2ccccc2n1C(C)=O | > 100 µM (inactive) | > 100 µM (inactive) | > 100 µM (inactive) | > 100 µM (inactive) | > 100 µM (inactive) | > 100 µM (inactive) | > 100 µM (inactive) | > 100 µM (inactive) | > 100 µM (inactive) | – | 72.9 µM (inactive) | > 100 µM (inactive) | > 100 µM (inactive) | > 100 µM (inactive) | > 100 µM (inactive) | > 100 µM (inactive) | > 100 µM (inactive) | > 100 µM (inactive) | –
9 | CCCCCCCCCCCCCP(=O)(O)NCC(N)=O | > 100 µM (inactive) | 45.7 µM (inactive) | 37.8 µM (inactive) | 25.4 µM (inactive) | > 100 µM (inactive) | – | 29.2 µM (inactive) | – | > 100 µM (inactive) | 34.5 µM (inactive) | 52 µM (inactive) | 39.1 µM (inactive) | 53.2 µM (inactive) | > 100 µM (inactive) | 99.8 µM (inactive) | 59.4 µM (inactive) | > 100 µM (inactive) | 39 µM (inactive) | > 100 µM (inactive)
10 | CN(C)c1ccc(/C=C(\NC(=O)c2ccccc2)c2nc3cncnc3[nH]2)cc1 | > 100 µM (inactive) | – | – | 41.5 µM (inactive) | > 100 µM (inactive) | > 100 µM (inactive) | > 100 µM (inactive) | > 100 µM (inactive) | – | > 100 µM (inactive) | > 100 µM (inactive) | > 100 µM (inactive) | > 100 µM (inactive) | > 100 µM (inactive) | > 100 µM (inactive) | – | > 100 µM (inactive) | > 100 µM (inactive) | > 100 µM (inactive)
11 | CC(C)(C)c1cc(C(O)(C(F)(F)F)C(F)(F)F)c2c(c1)C(C(F)(F)F)(C(F)(F)F)OC(c1ccccc1)(C(C)(C)C)N2 (stereo not given) | > 100 µM (inactive) | 3.72 µM (inactive) | – | < 0.01 µM (active) | 3.4 µM (inactive) | 3.07 µM (inactive) | 0.659 µM (active) | 2.07 µM (inactive) | 2.65 µM (inactive) | 3.03 µM (inactive) | 6.56 µM (inactive) | 9.16 µM (inactive) | 4.45 µM (inactive) | 2.7 µM (inactive) | 4.5 µM (inactive) | 4.99 µM (inactive) | 4.08 µM (inactive) | 0.637 µM (active) | 18.8 µM (inactive)
12 | CNC(=O)C(C)Oc1ccc(OCC2CCCCC2)cc1 (stereo not given) | > 100 µM (inactive) | > 100 µM (inactive) | – | – | 86.3 µM (inactive) | 65 µM (inactive) | > 100 µM (inactive) | > 100 µM (inactive) | 50.4 µM (inactive) | 25.2 µM (inactive) | 60.7 µM (inactive) | > 100 µM (inactive) | > 100 µM (inactive) | > 100 µM (inactive) | – | 61.1 µM (inactive) | – | 26.4 µM (inactive) | –
13 | COc1ccc(/C(=N/Nc2ccccc2)C(c2ccc(OC)cc2)C2OC(=O)c3ccccc32)cc1 (stereo not given) | 99.3 µM (inactive) | > 100 µM (inactive) | > 100 µM (inactive) | – | 90.6 µM (inactive) | 31.8 µM (inactive) | > 100 µM (inactive) | 25.6 µM (inactive) | 95.7 µM (inactive) | 70.5 µM (inactive) | > 100 µM (inactive) | – | > 100 µM (inactive) | – | – | 76 µM (inactive) | > 100 µM (inactive) | – | –
14 | CN1N=CSC12C(=O)N(c1ccc(Cl)cc1)C(=O)N2c1ccc(Cl)cc1 (stereo not given) | 3.46 µM (inactive) | 3.15 µM (inactive) | 3.69 µM (inactive) | 3.15 µM (inactive) | 3.4 µM (inactive) | 2.99 µM (inactive) | 5.42 µM (inactive) | 2.67 µM (inactive) | 3.27 µM (inactive) | 2.05 µM (inactive) | 3.28 µM (inactive) | 4.4 µM (inactive) | – | 3.95 µM (inactive) | 4.52 µM (inactive) | 3.15 µM (inactive) | 1.93 µM (inactive) | 1.43 µM (inactive) | –
15 | O=C1N(Cl)C(=O)C(c2ccc(Cl)cc2)(c2ccc(Cl)cc2)N1Cl | 58.6 µM (inactive) | 72.6 µM (inactive) | – | > 100 µM (inactive) | 78.9 µM (inactive) | > 100 µM (inactive) | 34.4 µM (inactive) | 56.8 µM (inactive) | 52.2 µM (inactive) | 64.4 µM (inactive) | 55.3 µM (inactive) | > 100 µM (inactive) | > 100 µM (inactive) | > 100 µM (inactive) | > 100 µM (inactive) | – | 41.8 µM (inactive) | > 100 µM (inactive) | –
16 | CCOC(=O)c1cc(OC(=O)CC)c2c(OC)ccc(OC)c2c1 | > 100 µM (inactive) | 70.1 µM (inactive) | – | – | > 10 µM (inactive) | 42.3 µM (inactive) | – | 43.7 µM (inactive) | > 100 µM (inactive) | > 100 µM (inactive) | – | > 100 µM (inactive) | > 100 µM (inactive) | 21.9 µM (inactive) | 66.5 µM (inactive) | – | > 100 µM (inactive) | – | 46.1 µM (inactive)
17 | COC1C(O)CC(OC2CC(OC3CC(O[C@@H]4C(=O)c5c(cc6cc(OC7CC(OC8CC(O)C(O)C(C)O8)C(O)C(C)O7)c(C)c(O)c6c5O)C[C@H]4[C@H](OC)C(=O)[C@@H](O)[C@@H](C)O)OC(C)C3O)OC(C)C2O)OC1C (stereo not given in full) | < 0.0151 µM (active) | < 0.01 µM (active) | < 0.012 µM (active) | < 0.014 µM (active) | < 0.0168 µM (active) | – | 0.0267 µM (active) | < 0.0159 µM (active) | < 0.01 µM (active) | < 0.0118 µM (active) | < 0.0173 µM (active) | < 0.0126 µM (active) | < 0.0129 µM (active) | < 0.0236 µM (active) | < 0.0228 µM (active) | < 0.0166 µM (active) | 0.0189 µM (active) | < 0.0271 µM (active) | < 0.0175 µM (active)

Reference: ChEMBL document CHEMBL1201862, “PubChem BioAssay data set” (2004)
